Each structure is given as a SMILES string. Numbered stars: 1 amine (or outer) side, 2 acyl side, 3 side chain; on linkers, the order of the positions; unused ones are H or OH. Bridge positions count the residues as written; N and C are the ends. Square brackets hold non-standard residues; d marks the D form. Peptide text beside a SMILES is read from it. * marks the point of attachment. ξ: configuration not given here. pTerphenylCO(4''-OnC5H11) = CCCCCOc1ccc(-c2ccc(-c3ccc(C(=O)*)cc3)cc2)cc1; Orn(4R-OH,5R-OH) = O=C([C@H](C[C@@H](O)[C@@H](O)N[*:3])N[*:1])[*:2]; X8 = O=C(C[C@@H](CCc1ccc(-c2ccc(OCCCc3ccccc3)cc2)cc1)N[*:2])[*:1]; hTyr(3S-OH,4S-OH) = N[C@H](C(=O)O)[C@H](O)[C@@H](O)c1ccc(O)cc1; X5 = CC(C)CCCOc1ccc(-c2ccc(CC[C@H](CC(=O)[*:1])N[*:2])cc2)cc1; X13 = CCCCCOc1ccc(-c2ccc(CC[C@H](CC(=O)[*:1])N[*:2])cc2)cc1; X10 = CCCCCCCCCOc1ccc2cc(CC[C@H](CC(=O)[*:1])N[*:2])ccc2c1; Pro(3S-OH,4S-Me) = C[C@H]1CN[C@H](C(=O)O)[C@H]1O; X6 = CCCCCCCCCCCCC[C@H](CC(=O)NC(C(=O)O)C(C)O)O*; X12 = NCC(=O)Nc1cc(CC(N[*:1])C(=O)[*:2])ccc1O; X9 = CCCCCCCCCCCCC[C@H](CC(=O)[*:1])O[*:2]; X2 = NC(=O)CC(O)C(N[*:1])C(=O)[*:2]; ξDopa = NC(Cc1ccc(O)c(O)c1)C(=O)O; Hyp = O=C(O)[C@@H]1C[C@@H](O)CN1; X1 = O=C(C1C(O)CCN1[*:1])[*:2]; ξY = NC(Cc1ccc(O)cc1)C(=O)O; ξHyp = O=C(O)C1CC(O)CN1; ξOrn = NCCCC(N)C(=O)O; ξT = CC(O)C(N)C(=O)O; ξV = CC(C)C(N)C(=O)O; ξP = O=C(O)C1CCCN1; ξA = CC(N)C(=O)O; Sar = CNCC(=O)O

Test system in one series: not listed separately
In words: Solubility. The note with it: solvents in which soluble.
Turning to `CCCCCCCCCCCCC[C@@H]1CC(=O)NC(C(C)O)C(=O)NC(C)C(=O)NC(Cc2ccc(O)c(O)c2)C(=O)NC(C(C)C)C(=O)N2CC(O)CC2C(=O)NC(C(C)O)C(=O)NC(C(C)O)C(=O)N2CCC(O)C2C(=O)NC(C(O)CC(N)=O)C(=O)NCC(=O)NC(C(C)O)C(=O)NC(CCCN)C(=O)O1` (some centres unmarked) [Aerothricin 2] ([ξT][ξA][ξDopa][ξV][ξHyp][ξT][ξT][X1][X2]G[ξT][ξOrn]; linker N-C via X9), the Solubility entry is on record as “Soluble: water, methanol, dimethylsulfoxide”.

As to `CCCCCCCCCCCCC[C@H](CC(=O)NC(C(=O)O)C(C)O)OC(=O)C(CCCN)NC(=O)C(NC(=O)CNC(=O)C(NC(=O)C1C(O)CCN1C(=O)C(NC(=O)C(NC(=O)C1CC(O)CN1C(=O)C(N)C(C)C)C(C)O)C(C)O)C(O)CC(N)=O)C(C)O` (some centres unmarked) [Compound (IX)] (H-[ξV][ξHyp][ξT][ξT][X1][X2]G[ξT][ξOrn]-X6), the Solubility entry is given as “Soluble: water, methanol, dimethylsulfoxide”.

The test system of another series is mouse hepatocytes. In words: In vitro hepatotoxicity test. The settings on record: mouse hepatocyte monolayers exposed 1 day, morphological evaluation. The format is cell-based. An excerpt: The mouse hepatocytes were isolated by a collagenase digestion and cultured in microtest plates. The hepatocyte monolayers were exposed to the test Aerothricins in the culture system for 1 day. After the culture period, the hepatocytes were observed under a microscope and evaluated morphologically. The degree of the morphological alteration (degeneration) of the hepatocytes by the test Aerothricins were compared with WF 11243 and LY303366.
With `CCCCCCCCCCOc1ccc(CC[C@@H]2CC(=O)NC(C(C)O)C(=O)NC(C)C(=O)NC(Cc3ccc(O)cc3)C(=O)NC(C(C)C)C(=O)N3CC(O)CC3C(=O)NC(C(C)O)C(=O)NC(C(C)O)C(=O)N3CCC(O)C3C(=O)NC(C(O)CC(N)=O)C(=O)NCC(=O)NC(C(C)O)C(=O)NC(CCCN)C(=O)N2)cc1` (single isomer, unassigned) [Aerothricin 47], the Cytotoxicity to hepatocyte was over 100 µg/mL.

In turn, `CCCCCCCCCCCCC[C@@H]1CC(=O)NC(C(C)O)C(=O)NC(C)C(=O)NC(Cc2ccc(O)cc2)C(=O)NC(C(C)C)C(=O)N2CC(O)CC2C(=O)NC(C(C)O)C(=O)NC(C(C)O)C(=O)N2CCC(O)C2C(=O)NC(C(O)CC(N)=O)C(=O)NCC(=O)NC(C(C)O)C(=O)NC(CCCNC(=O)CNC)C(=O)O1` (some centres unmarked) [Aerothricin 14] ([ξT][ξA][ξY][ξV][ξHyp][ξT][ξT][X1][X2]G[ξT][ξOrn](Sar); linker N-C via X9) came in with a Cytotoxicity to hepatocyte of over 100 µg/mL.

In turn, `CCCCCCCCCCCCC[C@@H]1CC(=O)NC(C(C)O)C(=O)NC(C)C(=O)NC(Cc2ccc(O)cc2)C(=O)NC(C(C)C)C(=O)N2CC(O)CC2C(=O)NC(C(C)O)C(=O)NC(C(C)O)C(=O)N2CCC(O)C2C(=O)NC(C(O)CC(N)=O)C(=O)NCC(=O)NC(C(C)O)C(=O)NC(CCCNC(=O)C2CCCN2)C(=O)O1` (some centres unmarked) [Aerothricin 15] ([ξT][ξA][ξY][ξV][ξHyp][ξT][ξT][X1][X2]G[ξT][ξOrn](ξP); linker N-C via X9) registered a Cytotoxicity to hepatocyte of over 100 µg/mL.

`CCCCCCCCCCCCC[C@@H]1CC(=O)NC(C(C)O)C(=O)NC(C)C(=O)NC(Cc2ccc(O)c(NC(=O)CN)c2)C(=O)NC(C(C)C)C(=O)N2CC(O)CC2C(=O)NC(C(C)O)C(=O)NC(C(C)O)C(=O)N2CCC(O)C2C(=O)NC(C(O)CC(N)=O)C(=O)NCC(=O)NC(C(C)O)C(=O)NC(CCCNC(=O)CN)C(=O)O1` (some centres unmarked) [Aerothricin 21] ([ξT][ξA][X12][ξV][ξHyp][ξT][ξT][X1][X2]G[ξT][ξOrn](Gly); linker N-C via X9) returned a Cytotoxicity to hepatocyte of over 100 µg/mL.

`CC(C)CCCOc1ccc(-c2ccc(CC[C@@H]3CC(=O)NC(C(C)O)C(=O)NC(C)C(=O)NC(Cc4ccc(O)cc4)C(=O)NC(C(C)C)C(=O)N4CC(O)CC4C(=O)NC(C(C)O)C(=O)NC(C(C)O)C(=O)N4CCC(O)C4C(=O)NC(C(O)CC(N)=O)C(=O)NCC(=O)NC(C(C)O)C(=O)NC(CCCN)C(=O)N3)cc2)cc1` (some centres unmarked) [Aerothricin 45] ([ξT][ξA][ξY][ξV][ξHyp][ξT][ξT][X1][X2]G[ξT][ξOrn]; linker N-C via X5) registered a Cytotoxicity to hepatocyte of over 100 µg/mL.

For `CCCCCCCCCOc1ccc2cc(CC[C@@H]3CC(=O)NC(C(C)O)C(=O)NC(C)C(=O)NC(Cc4ccc(O)cc4)C(=O)NC(C(C)C)C(=O)N4CC(O)CC4C(=O)NC(C(C)O)C(=O)NC(C(C)O)C(=O)N4CCC(O)C4C(=O)NC(C(O)CC(N)=O)C(=O)NCC(=O)NC(C(C)O)C(=O)NC(CCCN)C(=O)N3)ccc2c1` (some centres unmarked) [Aerothricin 53] ([ξT][ξA][ξY][ξV][ξHyp][ξT][ξT][X1][X2]G[ξT][ξOrn]; linker N-C via X10), the Cytotoxicity to hepatocyte is over 100 µg/mL.

`CCCCCOc1ccc(-c2ccc(-c3ccc(C(=O)N[C@H]4C[C@@H](O)[C@@H](O)NC(=O)[C@@H]5[C@@H](O)[C@@H](C)CN5C(=O)[C@H]([C@@H](C)O)NC(=O)[C@H]([C@H](O)[C@@H](O)c5ccc(O)cc5)NC(=O)[C@@H]5C[C@@H](O)CN5C(=O)[C@H]([C@@H](C)O)NC4=O)cc3)cc2)cc1` [LY303366, reference compound] ({pTerphenylCO(4''-OnC5H11)}-[Orn(4R-OH,5R-OH)]T[Hyp][hTyr(3S-OH,4S-OH)]T[Pro(3S-OH,4S-Me)]; lactam 1-C) had a Cytotoxicity to hepatocyte of 10 µg/mL.

A further series concerns Candida albicans. In words: In vivo antifungal efficacy, systemic candidiasis in mice. The note with it: i.v., b.i.d×1 day followed by q.d.×2 days; from survival on day 14. Set-up: species or system Crj: CD-1 (ICR) mice. How it is done: Mice of a conventional immunocompetent mouse strain, Crj: CD-1 (ICR) were used for experimental infection models of systemic candidiasis. 4 weeks old Crj: CD-1 (ICR) mice were used for systemic candidiasis by injecting Candida albicans 5×10^6 conidia/mouse via the tail vein. Treatments were given twice (0, 4 h after infection) on the first day and once daily on following 2 days for systemic candidiasis (b.i.d×1 day followed by q.d.×2 days), intravenously (i.v.). 50% of effective dose (ED50) values was calculated from the survival number at each dose on day 14.
As for `CCCCCCCCCCCCC[C@@H]1CC(=O)NC(C(C)O)C(=O)NC(C)C(=O)NC(Cc2ccc(OC)cc2)C(=O)NC(C(C)C)C(=O)N2CC(O)CC2C(=O)NC(C(C)O)C(=O)NC(C(C)O)C(=O)N2CCC(O)C2C(=O)NC(C(O)CC(N)=O)C(=O)NCC(=O)NC(C(C)O)C(=O)NC(CCCN)C(=O)O1` (some centres unmarked) [Aerothricin 5] ([ξT][ξA][ξY](Me)[ξV][ξHyp][ξT][ξT][X1][X2]G[ξT][ξOrn]; linker N-C via X9), the “In vivo antifungal activity against systemic candidiasis in mice, ED50 on day 14” value (from here on “In vivo antifungal activity”) came to 0.3 mg/kg.

Consider `CCCCCCCCCCOc1ccc(CC[C@@H]2CC(=O)NC(C(C)O)C(=O)NC(C)C(=O)NC(Cc3ccc(O)cc3)C(=O)NC(C(C)C)C(=O)N3CC(O)CC3C(=O)NC(C(C)O)C(=O)NC(C(C)O)C(=O)N3CCC(O)C3C(=O)NC(C(O)CC(N)=O)C(=O)NCC(=O)NC(C(C)O)C(=O)NC(CCCN)C(=O)N2)cc1` (some centres unmarked) [Aerothricin 36], for which the “In vivo antifungal activity” value came to 0.6 mg/kg.

Turning to `CCCCCOc1ccc(-c2ccc(CC[C@@H]3CC(=O)NC(C(C)O)C(=O)NC(C)C(=O)NC(Cc4ccc(O)cc4)C(=O)NC(C(C)C)C(=O)N4CC(O)CC4C(=O)NC(C(C)O)C(=O)NC(C(C)O)C(=O)N4CCC(O)C4C(=O)NC(C(O)CC(N)=O)C(=O)NCC(=O)NC(C(C)O)C(=O)NC(CCCN)C(=O)N3)cc2)cc1` (some centres unmarked) [Aerothricin 41] ([ξT][ξA][ξY][ξV][ξHyp][ξT][ξT][X1][X2]G[ξT][ξOrn]; linker N-C via X13), the “In vivo antifungal activity” value was 0.3 mg/kg.

For the compound `CC(C)CCCOc1ccc(-c2ccc(CC[C@@H]3CC(=O)NC(C(C)O)C(=O)NC(C)C(=O)NC(Cc4ccc(O)cc4)C(=O)NC(C(C)C)C(=O)N4CC(O)CC4C(=O)NC(C(C)O)C(=O)NC(C(C)O)C(=O)N4CCC(O)C4C(=O)NC(C(O)CC(N)=O)C(=O)NCC(=O)NC(C(C)O)C(=O)NC(CCCN)C(=O)N3)cc2)cc1` (some centres unmarked) [Aerothricin 45] ([ξT][ξA][ξY][ξV][ξHyp][ξT][ξT][X1][X2]G[ξT][ξOrn]; linker N-C via X5), the “In vivo antifungal activity” value amounted to 0.3 mg/kg.

In the case of `CC1NC(=O)C(C(C)O)NC(=O)C[C@@H](CCc2ccc(-c3ccc(OCCCc4ccccc4)cc3)cc2)NC(=O)C(CCCN)NC(=O)C(C(C)O)NC(=O)CNC(=O)C(C(O)CC(N)=O)NC(=O)C2C(O)CCN2C(=O)C(C(C)O)NC(=O)C(C(C)O)NC(=O)C2CC(O)CN2C(=O)C(C(C)C)NC(=O)C(Cc2ccc(O)cc2)NC1=O` (some centres unmarked) [Aerothricin 46] ([ξT][ξA][ξY][ξV][ξHyp][ξT][ξT][X1][X2]G[ξT][ξOrn]; linker N-C via X8), the “In vivo antifungal activity” value amounted to 0.4 mg/kg.

(Values after patent publication US6489440B1, “Cyclic compounds” (Basilea Pharmaceutica AG, priority 1998, dated 2002).)
